Measurements published in US20080214563A1, “Benzimidazole Thiophene Compounds As Plk Modulators” (priority 2005, published 2008).

Columns and labels:
[1] = system: HCT-116; assay: Cell-Titer Glo Cell Growth Inhibition Assay, HCT116; assay type: cell-based; conditions: Homo sapiens, CellTiter-Glo, 72 h, read-out: CTG HCT116 IC50
Experimental: (§1) A549-L (human lung), BT474 (human breast), Colo 205 (human colon), H1299 (human lung), Hela (human cervix), HCT-116 (human colon), HN5 (human head and neck), HT29 (human colon), LNCap (human prostate), MCF7 (human breast), MDA-MB468 (human breast), MX-1 (human breast), RPMI 8226 (human peripheral blood), SKOV3 (human ovary) and P388 (murine leukemia) cell lines were cultured in RPMI1640 containing 10% fetal bovine serum at 37° C. in a 5% CO2 incubator. Cell lines were split into T75 flasks (Falcon #353136) two to three days prior to assay set up at density which yields approximately 70-80% confluency at time of harvest for assay. Cells were harvested using 0.25% trypsin with EDTA (Glibco/Invitrogen #25200-056), Cell counts were performed on cell suspensions using Trypan Blue exclusion staining, cells were then plated in 105 uL of culture media per well at the following densities in 96 well Costar #3916 black flat bottom plates: All human cell lines were plated at 500 cells/well. P388 were plated at 250 cells/well. All plates were placed at 5% CO2 37° C. overnight and then test compounds were added the following day. One plate of each cell type is treated with CellTiter-Glo (Promega #G7573) for a day 0 proliferation measurement and read as described below. The test compounds are prepared in clear U bottom polypropylene 96 well plates (Falcon #35-1190 with consecutive two fold dilutions. 9 uL of these dilutions was added into each well of the cell plates. The final concentration of DMSO in all wells is 0.15%. Cells were incubated at 37° C., 5% CO2 for 72 h. Following 72 h of incubation with compounds each plate was developed and read. CellTiter-Glo reagent was added to assay plates using a volume equivalent to the cell culture volume in the wells. Plates were shaken for approximately two minutes and incubated at room temperature for approximately 15 min and the chemiluminescent signal is read on the Victor V or Envison 2100 reader. […] Concentration of compound that inhibited 50% of cell growth (IC50) was analysis by 4 or 6 parameter fit of data using XLfit, value of no cell addition was subtracted from all samples for background.

[2] = system: Colo 205; assay: Cell-Titer Glo Cell Growth Inhibition Assay, COLO205; assay type: cell-based; conditions: Homo sapiens, CellTiter-Glo, 72 h, read-out: CTG COLO205 IC50
Experimental: as §1

[3] = system: P388; assay: Cell-Titer Glo Cell Growth Inhibition Assay, P388; assay type: cell-based, murine; conditions: Mus musculus, CellTiter-Glo, 72 h, read-out: CTG P388 IC50
Experimental: as §1

[4] = system: A549-L; assay: Cell-Titer Glo Cell Growth Inhibition Assay, A549-L; assay type: cell-based; conditions: Homo sapiens, CellTiter-Glo, 72 h, read-out: CTG A549-L IC50
Experimental: as §1

[5] = system: HT29; assay: Cell-Titer Glo Cell Growth Inhibition Assay, HT29; assay type: cell-based; conditions: Homo sapiens, HT-29, CellTiter-Glo, 72 h, read-out: CTG HT29 IC50
Experimental: as §1

[6] = system: SKOV3; assay: Cell-Titer Glo Cell Growth Inhibition Assay, SKOV-3; assay type: cell-based; conditions: Homo sapiens, SK-OV-3, CellTiter-Glo, 72 h, read-out: CTG SKOV-3 IC50
Experimental: as §1

[7] = system: MX-1; assay: Cell-Titer Glo Cell Growth Inhibition Assay, MX-1; assay type: cell-based; conditions: Homo sapiens, MX1, CellTiter-Glo, 72 h, read-out: CTG MX-1 IC50
Experimental: as §1

[8] = system: BT474; assay: Cell-Titer Glo Cell Growth Inhibition Assay, BT474; assay type: cell-based; conditions: Homo sapiens; CellTiter-Glo, 72 h, BT 474; read-out: CTG BT 474 IC50
Experimental: (§2) A549-L (human lung), BT474 (human breast), Colo 205 (human colon), H1299 (human lung), Hela (human cervix), HCT-116 (human colon), HN5 (human head and neck), HT29 (human colon), LNCap (human prostate), MCF7 (human breast), MDA-MB468 (human breast), MX-1 (human breast), RPMI 8226 (human peripheral blood), SKOV3 (human ovary) and P388 (murine leukemia) cell lines were cultured in RPMI1640 containing 10% fetal bovine serum at 37° C. in a 5% CO2 incubator. Cell lines were split into T75 flasks (Falcon #353136) two to three days prior to assay set up at density which yields approximately 70-80% confluency at time of harvest for assay. Cells were harvested using 0.25% trypsin with EDTA (Glibco/Invitrogen #25200-056), Cell counts were performed on cell suspensions using Trypan Blue exclusion staining, cells were then plated in 105 uL of culture media per well at the following densities in 96 well Costar #3916 black flat bottom plates: All human cell lines were plated at 500 cells/well. P388 were plated at 250 cells/well. All plates were placed at 5% CO2 37° C. overnight and then test compounds were added the following day. One plate of each cell type is treated with CellTiter-Glo (Promega #G7573) for a day 0 proliferation measurement and read as described below. […]

[9] = system: Hela; assay: Cell-Titer Glo Cell Growth Inhibition Assay, Hela; assay type: cell-based; conditions: Homo sapiens, CellTiter-Glo, 72 h, read-out: CTG Hela IC50
Experimental: as §2

[10] = system: HN5; assay: Cell-Titer Glo Cell Growth Inhibition Assay, HN5; assay type: cell-based; conditions: Homo sapiens, CellTiter-Glo, 72 h, read-out: CTG HN5 IC50
Experimental: as §2

[11] = system: LNCap; assay: Cell-Titer Glo Cell Growth Inhibition Assay, LNCap; assay type: cell-based; conditions: Homo sapiens, CellTiter-Glo, 72 h, read-out: CTG LNCap IC50
Experimental: as §2

[12] = system: MCF7; assay: Cell-Titer Glo Cell Growth Inhibition Assay, MCF7; assay type: cell-based; conditions: Homo sapiens, CellTiter-Glo, 72 h, read-out: CTG MCF7 IC50
Experimental: as §2

[13] = system: MDA-MB468; assay: Cell-Titer Glo Cell Growth Inhibition Assay, MDA-MB468; assay type: cell-based; conditions: Homo sapiens, MDA-MB-468, CellTiter-Glo, 72 h, read-out: CTG MDA-MB468 IC50
Experimental: as §2

[14] = system: H1299; assay: Cell-Titer Glo Cell Growth Inhibition Assay, H1299; assay type: cell-based; conditions: Homo sapiens, NCI-H1299, CellTiter-Glo, 72 h, read-out: CTG H1299 IC50
Experimental: as §2

[15] = system: RPMI 8226; assay: Cell-Titer Glo Cell Growth Inhibition Assay, RPMI 8226; assay type: cell-based; conditions: Homo sapiens, CellTiter-Glo, 72 h, read-out: CTG RPMI 8226 IC50
Experimental: as §2

[16] = Intravenous pharmacokinetics in CD-1 mouse; assay type: in vivo; conditions: plasma, iv bolus, male CD-1 mouse, dose 1.9-7.4 mg/kg per compound (Table 3)
Experimental: Preliminary investigation of the intravenous pharmacokinetics of compounds of invention were carried out in fed conscious CD-1 mouse. Compounds were formulated as 1-10 mg/kg, 5 mL/kg, 1-2 mg/mL solution (Table 3). Twenty one male mice (n=3 mice per time point) (˜30 g) received dose solution by bolus injection in the tail vein. The formulation for iv were either 20% beta cyclodextrin in saline pH 3.5-6 or PEG400:ethanol:saline (50:15:35 v/v). Blood samples (˜0.4 mL) were collected terminally by cardiac puncture following anesthetization in a CO2 chamber at 2, 15, 30, 60 min, 2, 4, and 6 h following iv administration. Blood samples were collected into tubes containing heparin and placed on crushed ice promptly after collection. Plasma was collected by centrifugation, frozen and stored at about −80° C. prior to analysis. Blood or plasma concentrations were determined by LC/MS/MS equipped with an electrospray ion source and using calibration curves for the appropriate matrix. The lower level of quantitation (LLQ) was 10 ng/mL. Blood or plasma concentration-time data were analyzed by non-compartmental methods using the computer program WinNonlin Professional (version 4.1). Area under the blood or plasma concentration-time curve (AUC) was calculated using the linear trapezoidal rule for each incremental trapezoid up to Cmax, and the log trapezoidal rule for each trapezoid thereafter. The terminal elimination rate constant (λz) was derived from the log-linear disposition phase of the concentration-time curve using least-squares regression analysis with visual inspection of the data to determine the appropriate number of terminal data points for regression analysis.
Following iv administration, the total body clearance (CL) was estimated. CL was calculated by dividing the dose by AUC(0−t). The clearance values were assigned as follows. Low <30 mL/min/kg, moderate 30-70 mL/min/kg, high >70 mL/min/kg. The assignment was based on hepatic blood flow i.e. hepatic blood flow of 0-30% low, 30-70% moderate and 70-100% high. The hepatic blood flow in mouse is ˜100 mL/min/kg.

CCN1CCN(CCCn2cc(-c3ccc4c(c3)ncn4-c3cc(O[C@H](C)c4ccccc4Cl)c(C(N)=O)s3)cn2)CC1 [Example 8, 3-{[(1R)-1-(2-Chlorophenyl)ethyl]oxy}-5-(5-{1-[3-(4-ethyl-1-piperazinyl)propyl]-1H-pyrazol-4-yl}-1H-benzimidazol-1-yl)-2-thiophenecarboxamide]
IC50 [1]: < 0.1 µM | IC50 [2]: < 0.1 µM | IC50 [3]: < 0.1 µM | IC50 [4]: < 0.1 µM | IC50 [5]: < 0.1 µM | IC50 [6]: < 0.1 µM | IC50 [7]: < 0.1 µM | IC50 [8]: < 0.1 µM | IC50 [9]: < 0.1 µM | IC50 [10]: < 0.1 µM | IC50 [11]: < 0.1 µM | IC50 [12]: < 0.1 µM | IC50 [13]: < 0.1 µM | IC50 [14]: < 0.1 µM | IC50 [15]: < 0.1 µM | AUC(0-t) [16]: 1410 ng·h/mL | clearance ([16]; read-out: Plasma CL): 43.6 mL/min/kg
